# Source: PubChem BioAssay AID330 (DTP/NCI, 2004)
# Where “and” joins values, the source holds several entries; their conditions need not be identical. Identical values can stand only once. Inconclusive results and toxic doses are left out. Square brackets hold non-standard residues; d marks the D form. Peptide text beside a SMILES is read from it. ξ: configuration not given here. ξA = CC(N)C(=O)O
# System: P388 leukemia ip, CD2F1 mice, survival T/C
# Assay: NCI In Vivo Anticancer Drug Screen. Data for tumor model P388 Leukemia (intraperitoneal) in CD2F1 (CDF1) mice
# Conditions: endpoint: median survival time, higher = longer survival
# In short: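 Mice carrying the transplanted tumor received test compound or vehicle. Survival was recorded in each group, and the value is the treated-group measurement divided by that of the vehicle-treated control group.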
# [1] = dose: 50.0 mg/kg/injection, schedule: Q01DX005 (ip), vehicle: saline with Tween-80
# [2] = dose: 100.0 mg/kg/injection, schedule: Q01DX005 (ip), vehicle: saline with Tween-80
# [3] = dose: 60.0 mg/kg/injection, schedule: Q01DX005 (ip), vehicle: saline with Tween-80
# [4] = dose: 120.0 mg/kg/injection, schedule: Q01DX005 (ip), vehicle: saline with Tween-80
# [5] = dose: 240.0 mg/kg/injection, schedule: Q01DX005 (ip), vehicle: saline with Tween-80
# [6] = dose: 50.0 mg/kg/injection, schedule: Q01DX005 (ip), vehicle: saline
# [7] = dose: 100.0 mg/kg/injection, schedule: Q01DX005 (ip), vehicle: saline
# [8] = dose: 50.0 mg/kg/injection, schedule: Q01DX009 (ip), vehicle: saline with Tween-80
# [9] = dose: 100.0 mg/kg/injection, schedule: Q01DX009 (ip), vehicle: saline with Tween-80
# [10] = dose: 200.0 mg/kg/injection, schedule: Q01DX009 (ip), vehicle: saline with Tween-80
# [11] = dose: 50.0 mg/kg/injection, schedule: Q01DX005 (ip), vehicle: Klucel (hydroxypropylcellulose) (HPC)
# [12] = dose: 100.0 mg/kg/injection, schedule: Q01DX005 (ip), vehicle: Klucel (hydroxypropylcellulose) (HPC)
# [13] = dose: 200.0 mg/kg/injection, schedule: Q01DX005 (ip), vehicle: Klucel (hydroxypropylcellulose) (HPC)
structure (smiles),measurement,setting,value
Cc1ccc(Cc2ccc[nH]2)cc1,T/C,"dose: 100.0 mg/kg/injection, schedule: Q04DX002 (ip), vehicle: distilled water + Tween-80 + alcohol",100 % of control
same,T/C,"dose: 200.0 mg/kg/injection, schedule: Q04DX002 (ip), vehicle: distilled water + Tween-80 + alcohol",100 % of control
same,T/C,"dose: 400.0 mg/kg/injection, schedule: Q04DX002 (ip), vehicle: distilled water + Tween-80 + alcohol",103 % of control
CCCCNC(=O)c1cc(NC(=O)c2ccc(C(=O)Nc3cc(C(=O)NCCCC)cc(C4N=CCN4)c3)cc2)cc(C2=NCCN2)c1 (centres undefined),T/C,[1],94 % of control
same,T/C,[2],95 % of control
COc1cc(NCC(O)CN(CC(C)C)C2CCCC2)c2ncccc2c1 (centres undefined),T/C,"dose: 12.5 mg/kg/injection, schedule: Q01DX005 (ip), vehicle: saline",100 % of control
same,T/C,"dose: 25.0 mg/kg/injection, schedule: Q01DX005 (ip), vehicle: saline",99 % of control
COc1ccc(C(c2cc3c(cc2O)OCO3)n2ccnc2)cc1 (centres undefined),T/C,[3],99 % of control
same,T/C,[4],99 % of control
same,T/C,[5],96 % of control
C/C=C1/CNC2Cc3c([nH]c4ccccc34)C(c3ccc4c5c([nH]c4c3)C3CC4CC(CC)C3N(CC5)C4)CC1C2C(=O)OC (centres undefined),T/C,"dose: 2.5 mg/kg/injection, schedule: Q01DX009 (ip), vehicle: saline",106 % of control
same,T/C,"dose: 5.0 mg/kg/injection, schedule: Q01DX009 (ip), vehicle: saline",100 % of control
COC(=O)c1[nH]c(=O)[nH]c(=O)c1N,T/C,"dose: 25.0 mg/kg/injection, schedule: Q04DX003 (ip), vehicle: saline with Tween-80",100 % of control
same,T/C,"dose: 50.0 mg/kg/injection, schedule: Q04DX003 (ip), vehicle: saline with Tween-80",101 % of control
same,T/C,"dose: 100.0 mg/kg/injection, schedule: Q04DX003 (ip), vehicle: saline with Tween-80",100 % of control
same,T/C,"dose: 200.0 mg/kg/injection, schedule: Q04DX003 (ip), vehicle: saline with Tween-80",102 % of control
CCOC(=O)CNC(=O)Sc1ccc(C(C)(C)C)cc1C,T/C,"dose: 50.0 mg/kg/injection, schedule: Q01DX005 (ip), vehicle: saline + Tween-80 + alcohol",100 % of control (2×) and 107 % of control
same,T/C,"dose: 100.0 mg/kg/injection, schedule: Q01DX005 (ip), vehicle: saline + Tween-80 + alcohol",110 % of control and 111 % of control and 118 % of control
same,T/C,"dose: 200.0 mg/kg/injection, schedule: Q01DX005 (ip), vehicle: saline + Tween-80 + alcohol",114 % of control and 120 % of control
same,T/C,"dose: 400.0 mg/kg/injection, schedule: Q01DX005 (ip), vehicle: saline + Tween-80 + alcohol",114 % of control
CCN(C(=O)CNCC(C)C)c1ccc(C)c(Cl)c1,T/C,[6],100 % of control
same,T/C,[7],99 % of control
COCC(=O)OC,T/C,"dose: 25.0 mg/kg/injection, schedule: Q01DX009 (ip), vehicle: saline",97 % of control
same,T/C,"dose: 50.0 mg/kg/injection, schedule: Q01DX009 (ip), vehicle: saline",100 % of control
same,T/C,"dose: 100.0 mg/kg/injection, schedule: Q01DX009 (ip), vehicle: saline",98 % of control
same,T/C,"dose: 200.0 mg/kg/injection, schedule: Q01DX009 (ip), vehicle: saline",92 % of control
CC(=O)OC(C)(C)/C=C/C(=O)[C@](C)(O)[C@H]1[C@H](O)C[C@@]2(C)[C@@H]3CC=C4[C@@H](C=C(O)C(=O)C4(C)C)[C@]3(C)C(=O)C[C@]12C,T/C,"dose: 0.25 mg/kg/injection, schedule: Q01DX009 (ip), vehicle: saline with Tween-80",87 % of control
same,T/C,"dose: 1.0 mg/kg/injection, schedule: Q01DX009 (ip), vehicle: saline with Tween-80",91 % of control
same,T/C,"dose: 1.0 mg/kg/injection, schedule: Q01DX009 (ip), vehicle: saline",93 % of control
same,T/C,"dose: 2.0 mg/kg/injection, schedule: Q01DX009 (ip), vehicle: saline with Tween-80",91 % of control
same,T/C,"dose: 2.0 mg/kg/injection, schedule: Q01DX009 (ip), vehicle: saline",94 % of control
same,T/C,"dose: 4.0 mg/kg/injection, schedule: Q01DX009 (ip), vehicle: saline with Tween-80",91 % of control
same,T/C,"dose: 4.0 mg/kg/injection, schedule: Q01DX009 (ip), vehicle: saline",93 % of control
same,T/C,"dose: 8.0 mg/kg/injection, schedule: Q01DX009 (ip), vehicle: saline",93 % of control
Cc1sc2ccccc2[n+]1CCC(=O)O,T/C,[8],100 % of control
same,T/C,[9],100 % of control
same,T/C,[10],98 % of control
same,T/C,"dose: 400.0 mg/kg/injection, schedule: Q01DX009 (ip), vehicle: saline with Tween-80",98 % of control
CNC(=O)Nc1[nH]c(=O)ncc1Cl,T/C,[3],112 % of control
same,T/C,[4],113 % of control
NS(=O)(=O)c1ccc(N=CC2C(=O)N(c3ccccc3)N(c3ccccc3)C2=O)cc1,T/C,"dose: 100.0 mg/kg/injection, schedule: Q01DX001 (ip), vehicle: Klucel (hydroxypropylcellulose) (HPC)",87 % of control
same,T/C,"dose: 200.0 mg/kg/injection, schedule: Q01DX001 (ip), vehicle: Klucel (hydroxypropylcellulose) (HPC)",89 % of control
same,T/C,"dose: 400.0 mg/kg/injection, schedule: Q01DX001 (ip), vehicle: Klucel (hydroxypropylcellulose) (HPC)",92 % of control
CN1C(=O)c2ccccc2N(C)C12CCN(Cc1ccccc1)CC2,T/C,"dose: 50.0 mg/kg/injection, schedule: Q01DX005 (ip), vehicle: distilled water + alcohol",103 % of control
same,T/C,"dose: 100.0 mg/kg/injection, schedule: Q01DX005 (ip), vehicle: distilled water + alcohol",100 % of control
same,T/C,"dose: 200.0 mg/kg/injection, schedule: Q01DX005 (ip), vehicle: distilled water + alcohol",97 % of control
CC(NC(=O)CNC(=O)CNC(=O)CNC(=O)CN)C(=O)O (centres undefined) (H-GGGG[ξA]-OH),T/C,[6],100 % of control
same,T/C,[7],103 % of control
same,T/C,"dose: 200.0 mg/kg/injection, schedule: Q01DX005 (ip), vehicle: saline",101 % of control
CC1(CCl)Nc2ccccc2C(=O)N1c1ccccc1 (centres undefined),T/C,[8],99 % of control
same,T/C,[9],97 % of control
same,T/C,[10],88 % of control
CN(C)CCN(C)CCC(=O)/C=C/c1ccccc1,T/C,"dose: 12.5 mg/kg/injection, schedule: Q01DX001 (ip), vehicle: saline",94 % of control
same,T/C,"dose: 25.0 mg/kg/injection, schedule: Q01DX001 (ip), vehicle: saline",101 % of control
same,T/C,"dose: 50.0 mg/kg/injection, schedule: Q01DX001 (ip), vehicle: saline",111 % of control
C[N+](C)(C)N=P(O)(N[N+](C)(C)C)c1ccccc1 (centres undefined),T/C,"dose: 60.0 mg/kg/injection, schedule: Q01DX005 (ip), vehicle: saline",104 % of control
same,T/C,"dose: 120.0 mg/kg/injection, schedule: Q01DX005 (ip), vehicle: saline",104 % of control
same,T/C,"dose: 240.0 mg/kg/injection, schedule: Q01DX005 (ip), vehicle: saline",103 % of control
O=C(O)c1ccc(NC(=O)C(Cl)Cl)cc1,T/C,[11],97 % of control
same,T/C,[12],102 % of control
same,T/C,[13],100 % of control
C/C(=C\c1cc2c(cc1Cl)OCO2)[N+](=O)[O-],T/C,"dose: 100.0 mg/kg/injection, schedule: Q04DX002 (ip), vehicle: Klucel (hydroxypropylcellulose) (HPC)",104 % of control
same,T/C,"dose: 200.0 mg/kg/injection, schedule: Q04DX002 (ip), vehicle: Klucel (hydroxypropylcellulose) (HPC)",102 % of control
same,T/C,"dose: 400.0 mg/kg/injection, schedule: Q04DX002 (ip), vehicle: Klucel (hydroxypropylcellulose) (HPC)",118 % of control
COC(=O)/C(C#N)=C/c1ccc2c(c1)OCO2,T/C,[11],100 % of control
same,T/C,[12],97 % of control
same,T/C,[13],100 % of control
CC(=O)CC1C(=O)OC(C)(C)OC1=O,T/C,[1],112 % of control
same,T/C,[2],106 % of control
same,T/C,"dose: 200.0 mg/kg/injection, schedule: Q01DX005 (ip), vehicle: saline with Tween-80",103 % of control
CCC12C[N+]3([O-])CCc4c([nH]c5ccccc45)C(C(=O)OC)(c4cc5c(cc4OC)N(C)C4C(O)(C(=O)OC)C(OC(C)=O)C6(CC)C=CCN7CCC54C76)CC(C3)C1O2 (centres undefined),T/C,"dose: 2.0 mg/kg/injection, schedule: Q01DX001 (ip), vehicle: water",102 % of control
same,T/C,"dose: 8.0 mg/kg/injection, schedule: Q01DX001 (ip), vehicle: distilled water + Tween-80",161 % of control
same,T/C,"dose: 8.0 mg/kg/injection, schedule: Q01DX001 (ip), vehicle: water",122 % of control
same,T/C,"dose: 16.0 mg/kg/injection, schedule: Q01DX001 (ip), vehicle: distilled water + Tween-80",193 % of control
same,T/C,"dose: 32.0 mg/kg/injection, schedule: Q01DX001 (ip), vehicle: water",171 % of control
same,T/C,"dose: 64.0 mg/kg/injection, schedule: Q01DX001 (ip), vehicle: water",190 % of control
COc1ccccc1NC(=O)C1=C(C)NC(C)=C(C(=O)Nc2ccccc2C)C1c1ccccc1 (centres undefined),T/C,[3],100 % of control
same,T/C,[4],104 % of control
same,T/C,[5],89 % of control
